According to EP4678639A1, “SALT OF BENZIMIDAZOLE DERIVATIVE” (JW Pharmaceutical Corporation, priority 2023, dated 2024):
Counter-ions that a name gives are not always drawn.

How the values were obtained:
[1] = water
Protocol: (§1) The measurement was conducted according to the method described under "Solubility" in the General Notices of Appendix 1 of the 12th Edition of the Korean Pharmacopoeia. Each solubility was expressed by measuring the solubility of the acid addition salt itself, without conversion to the tegoprazan freebase.

[2] = Solid-state stress stability test (humidity 90 % RH); settings: for Initial (%) Degradant / Initial (%) Total Related substances: Table 9, initial
Protocol: The analysis conditions are as follows.
(§2) Operation and Calculation: The blank solution, standard solution, and test solution were sequentially tested under the instrument operating conditions according to the liquid chromatography method in the General Test Methods of the 12th Edition of the Korean Pharmacopoeia, and the amount of related substances was calculated using the following equation. Amount of each related; substance (%) = (AT)/(AS) × (CS)/(CT) × (Molecular weight; of the sample)/(Molecular weight; of the standard; product) × P × (1)/(RR; F) [formula] AT = Area of each related substance peak obtained from the test solution AS = Area of the tegoprazan peak obtained from the standard solution CS = Concentration of standard solution (mg/mL) CT = Concentration of test solution (mg/mL) P = Purity/Assay/Potency (%) of standard product RRF = Relative response factor (1.0)
(§3) A solid-state stability comparative test was conducted on each of the above-mentioned prepared tegoprazan acid addition salts. The stability comparative test was conducted for 1 month under the conditions shown in Table 6 below in accordance with The International Council for Harmonisation of Technical Requirements for Pharmaceuticals for Human Use (ICH) guideline, and the purity of the acid addition salt, total related substances, and the content of degradants were measured by HPLC at the initial time point and after 1 month. Total related substances and degradants were measured according to the related substance test method (HPLC).
3) Stress Stability (humidity 90 % RH)

[3] = Solid-state stress stability test (temperature 60 °C); settings: for Change (%) Degradant: 1 month vs initial; for Initial (%) Degradant / Initial (%) Total Related substances: Table 8, initial
Protocol: The analysis conditions are as follows.
as §2, §3
2) Stress Stability Test (temperature 60 °C)

[4] = Photostability test, visible light (1.2 Mlux·hr) exposure; settings: for Change (%) Degradant: Table 11, after exposure vs initial; for Initial (%) Degradant / Initial (%) Total Related substances: Table 11, initial; for After (%) Degradant / After (%) Total Related substances: Table 11 under heading Visible Light (1.2 Mlux-hr) Exposure Test
Protocol: (§4) A photostability comparative test was conducted on each of the above-mentioned prepared tegoprazan acid addition salts. The test was conducted by exposing the sample to light with an energy of 200 W hr/m^2 of ultraviolet light and 1.2 Mlux hr of visible light in accordance with The International Council for Harmonisation of Technical Requirements for Pharmaceuticals for Human Use (ICH) guideline, with the samples packaged in a single PE bag and spread thinly enough to ensure exposure to the light source, taking humidity stability into consideration. The purity of the acid addition salts and the change in the amount of degradants at the initial time point and after exposure to ultraviolet light or visible light were measured by HPLC.

[5] = Photostability test, ultraviolet light (200 W·hr/m2) exposure; settings: for After Ultraviolet Light Exposure (200 W hr/m2)(%) Degradant / After Ultraviolet Light Exposure (200 W hr/m2)(%) Total Related substances: Table 10, UV 200 W·hr/m2, PE bag; for Change (%) Degradant: Table 10, after UV exposure vs initial; for Initial (%) Degradant / Initial (%) Total Related substances: Table 10, initial
Protocol: as §4

[6] = Solid-state accelerated stability test (40 ± 2 °C/RH 75 ± 5 %); settings: for After 1 Month (%) Degradant / After 1 Month (%) Total Related substances / Change (%) Degradant: 40 ± 2 °C / RH 75 ± 5 %; for Change (%) Degradant: 1 month vs initial; for Initial (%) Total Related substances / Initial (%) Degradant: Table 7, initial; for Initial (%) Degradant: degradant of Formula 4
Protocol: The analysis conditions are as follows.
as §2, §3

[7] = Raw material stability test versus tegoprazan freebase (60 °C or 90 % RH); format: physicochemical
[8] = in vivo; cited from earlier work
[9] = Solubility comparative test (Korean Pharmacopoeia 'Solubility'); settings: solubility of the acid addition salt itself, without conversion to freebase
Protocol: as §1

In the case of `Cc1nc2c(O[C@H]3CCOc4cc(F)cc(F)c43)cc(C(=O)N(C)C)cc2[nH]1` [Hemisalicylate Salt], the “solubility / aqueous solubility” value [1] is reported as at most 1000 µg/mL, the “After 1 Month (%) Total Related substances” value ([2]; 90 % RH, 1 month) is reported as 1.759% and the “Initial (%) Degradant” value [2] is reported as 0.001%. For the same compound, the “Initial (%) Total Related substances” value [2] was 0.208%, the “After 1 Month (%) Degradant” value ([3]; 60 °C) was 0.039% and the “After 1 Month (%) Total Related substances” value ([3]; 60 °C) was 0.268%. For the same compound, the “Change (%) Degradant” value ([3]; 60 °C) was 0.038%, the “Initial (%) Degradant” value [3] was 0.001% and the “Initial (%) Total Related substances” value [3] was 0.208%. For the same compound, the “Change (%) Degradant” value [4] was 0.244%, the Remarks ([4]; Table 11, after exposure, appearance) was “Discolorat ion” and the “Initial (%) Degradant” value [4] was 0.001%. The “Initial (%) Total Related substances” value [4] was 0.208%, the “After (%) Degradant” value [4] was 0.245% and the “After (%) Total Related substances” value [4] was 1.021%. The changes in appearance ([4]; visible light exposure) was “changes in appearance”, the “After Ultraviolet Light Exposure (200 W hr/m2)(%) Degradant” value [5] was 0.360% and the “After Ultraviolet Light Exposure (200 W hr/m2)(%) Total Related substances” value [5] was 1.360%. For the same compound, the “Change (%) Degradant” value [5] was 0.359%, the Remarks ([5]; Table 10, after UV exposure, appearance) was “Discolorat ion” and the “Initial (%) Degradant” value [5] was 0.001%. The “Initial (%) Total Related substances” value [5] was 0.208%, the changes in appearance ([5]; ultraviolet light exposure) was “changes in appearance” and the “After 1 Month (%) Degradant” value [6] was 0.004%. The “After 1 Month (%) Total Related substances” value [6] was 0.208%, the “Change (%) Degradant” value [6] was 0.003% and the “Initial (%) Total Related substances” value [6] was 0.208%. The “Initial (%) Degradant” value [6] was 0.001% and the “purity change after 1 month” value ([6]; accelerated stability) was at most 0.1%.

For `Cc1nc2c(O[C@H]3CCOc4cc(F)cc(F)c43)cc(C(=O)N(C)C)cc2[nH]1` [Maleate Salt], the “solubility / aqueous solubility” value [1] was at most 1000 µg/mL, the “absorb moisture and deliquesce / melted” value ([2]; 90 % RH) was “absorb moisture and deliquesce” and the Remarks ([2]; 90 % RH, 1 month, state of the solid) was “Melted”. The “Initial (%) Degradant” value [2] was 0.027%, the “Initial (%) Total Related substances” value [2] was 0.357% and the “total related substances increased after 1 month” value ([3]; 60 °C) was at least 5.0%. The “After 1 Month (%) Degradant” value ([3]; 60 °C) was 1.248%, the “After 1 Month (%) Total Related substances” value ([3]; 60 °C) was 6.070% and the “Change (%) Degradant” value ([3]; 60 °C) was 1.221%. The “Initial (%) Degradant” value [3] was 0.027%, the “Initial (%) Total Related substances” value [3] was 0.357% and the “Change (%) Degradant” value [4] was 0.006%. For the same compound, the “Initial (%) Degradant” value [4] was 0.027%, the “Initial (%) Total Related substances” value [4] was 0.357% and the “After (%) Degradant” value [4] was 0.033%. For the same compound, the “After (%) Total Related substances” value [4] was 0.508%, the “After Ultraviolet Light Exposure (200 W hr/m2)(%) Degradant” value [5] was 0.032% and the “After Ultraviolet Light Exposure (200 W hr/m2)(%) Total Related substances” value [5] was 0.354%. For the same compound, the “Change (%) Degradant” value [5] was 0.005%, the “Initial (%) Degradant” value [5] was 0.027% and the “Initial (%) Total Related substances” value [5] was 0.357%. For the same compound, the “After 1 Month (%) Degradant” value [6] was 0.083%, the “After 1 Month (%) Total Related substances” value [6] was 0.679% and the “Change (%) Degradant” value [6] was 0.056%. For the same compound, the “Initial (%) Total Related substances” value [6] was 0.357%, the “Initial (%) Degradant” value [6] was 0.027% and the “increase in total related substances after 1 month” value ([6]; accelerated stability) was at least 0.3%.

For `Cc1nc2cc(C(=O)N(C)C)cc(O[C@H]3CCOc4cc(F)cc(F)c43)c2[nH]1` [Tegoprazan Freebase Crystalline Form A], the “change in appearance, 60 °C” value ([7]; 60 °C, 3 weeks) was “No change in appearance”, the “change in appearance, 90 % RH” value ([7]; 90 % RH, 3 weeks) was “No change in appearance” and the “change in appearance, Initial” value ([7]; initial) was “No change in appearance”. For the same compound, the “Tmax delayed when administered after a meal compared to before a meal” value [8] was “up to 8 hours” and the “Solubility” value [9] was under 1000 µg/mL.
